Key:
[1] = tested on: ticks (Rhipicephalus sanguineus); test: control of tick on dog; format: in vivo; settings: dogs, 10 mg/kg, 30 mg/mL in 1:1 dimethyl sulfoxide/corn oil; counts versus placebo at 1, 9, 16, 23, 30 days; satisfactory in any of the three areas, for a period ranging from eight to thirty days
Excerpt: (§1) Cats are only infested with fleas.

[2] = tested on: cat fleas (Ctenocephalides felis); test: control of flea on dog; format: in vivo; settings: dogs, 10 mg/kg, 30 mg/mL in 1:1 dimethyl sulfoxide/corn oil; counts versus placebo at 1, 9, 16, 23, 30 days; satisfactory in any of the three areas, for a period ranging from eight to thirty days
Excerpt: as §1

[3] = tested on: cat fleas (Ctenocephalides felis); test: control of flea on cat; format: in vivo; settings: cats, 20 mg/kg, 30 mg/mL in 1:1 dimethyl sulfoxide/corn oil; counts versus placebo at 1, 9, 16, 23, 30 days; satisfactory in any of the three areas, for a period ranging from eight to thirty days
Excerpt: as §1

[4] = side-effects in treated dogs and cats; settings: dogs 10 mg/kg, cats 20 mg/kg; period ranging from eight to thirty days
Description: The compounds 1-(2,6-dichloro-4-trifluoromethylphenyl)-3-cyano-4-trifluromethylthio-5-hydroxypyrazole, 1-(2,6-dichloro-4-trifluoromethylphenyl)-3-cyano-4-trifluoromethylsulfinyl-5-hydroxypyrazole and 1-(2,6-dichloro-4-trifluoromethylphenyl)-3-cyano-4-trifluoromethylsulfonyl-5-hydroxypyrazole are formulated as 30 mg/mL formulations in a 1:1 volume/volume solution of dimethyl sulfoxide and corn oil. Using this formulation, mixed breed dogs and cats are treated at a rate of 10 mg of the compound per kg (mg/kg)of body weight of the dog and 20 mg/kg of the cat treated. The animals are fasted for at least 8 hours prior to treatment, fed half of the daily ration immediately prior to treatment, then allowed access to the remainder of the daily ration immediately following treatment.
All dogs are infested with cat fleas (Ctenocephalides felis) and with ticks (Rhipicephalus sanguineus) 1 day prior to administration of the compound. Cats are only infested with fleas. […] At 1, 9, 16, 23 and 30 days after treatment the control of fleas and ticks in treated dogs and cats is determined versus a group of infested dogs and cats which receive a placebo consisting of a 1:1 volume/volume solution of dimethyl sulfoxide and corn oil. To determine the efficacies of the compounds, the arthropods are combed from the animnals and counted.

| Structure (SMILES) | control of tick on dog [1] | control of flea on dog [2] | control of flea on cat [3] | side-effect [4] |
| --- | --- | --- | --- | --- |
| CC(C)(C)C(=O)Oc1c(SC(F)(F)F)c(C#N)nn1-c1c(Cl)cc(C(F)(F)F)cc1Cl [Compound 3-10, 1-(2,6-dichloro-4-trifluoromethylphenyl)-3-cyano-4-trifluoromethylsulfenyl-5-trimethylacetoxypyrazole] | Satisfactory results | Satisfactory results | Satisfactory results | – |
| N#Cc1nn(-c2c(Cl)cc(C(F)(F)F)cc2Cl)c(O)c1SC(F)(F)F [Compound 1-1, 1-(2,6-dichloro-4-trifluoromethylphenyl)-3-cyano-4-trifluoromethylsulfenyl-5-hydroxypyrazole] | Satisfactory results | Satisfactory results | Satisfactory results | – |
| CN(C)C(=O)Oc1c(S(=O)(=O)C(F)(F)F)c(C#N)nn1-c1c(Cl)cc(C(F)(F)F)cc1Cl [Compound 19-1, 1-(2,6-dichloro-4-trifluorometylphenyl) -3-cyano-4-trifluormethylsulfonyl-5-N,N-dimethylcarbamyloxypyrazole] | Satisfactory results | Satisfactory results | Satisfactory results | without any significant side-effect |
| N#Cc1nn(-c2c(Cl)cc(C(F)(F)F)cc2Cl)c(O)c1SC(F)(F)Cl [Compound 1-9, 1-(2,6-dichloro-4-trifluoromethylphenyl)-3-cyano-4-chlorodifluoromethylsulfenyl-5-hydroxypyrazole] | Satisfactory results | Satisfactory results | Satisfactory results | without any significant side-effect |
| N#Cc1nn(-c2c(Cl)cc(C(F)(F)F)cc2Cl)c(O)c1S(=O)(=O)C(F)(F)F [Compound 1-5, 1-(2,6-dichloro-4-trifluoromethylphenyl)-3-cyano-4-trifluoromethylsulfonyl-5-hydroxypyrazole] | Satisfactory results | Satisfactory results | Satisfactory results | – |
| CCOc1c(SC(F)(F)F)c(C#N)nn1-c1c(Cl)cc(C(F)(F)F)cc1Cl [Compound 3-1, 1-(2,6-dichloro-4-trifluoromethylphenyl)-3-cyano-4-trifluoromethylsulfenyl-5-ethoxypyrazole] | Satisfactory results | Satisfactory results | Satisfactory results | – |
| N#Cc1nn(-c2c(Cl)cc(C(F)(F)F)cc2Cl)c(O)c1[S+]([O-])C(F)(F)F (centres unmarked) [Compound 1-3, 1-(2,6-dichloro-4-trifluoromethylphenyl)-3-cyano-4-trifluoromethylsulfinyl-5-hydroxypyrazole] | Satisfactory results | Satisfactory results | Satisfactory results | – |
